According to patent US20230085307A1, “PYRIDAZINONE COMPOUND AND HERBICIDE” (NISSAN CHEMICAL CORPORATION, priority 2019, published 2023):

Tests used:
late watergrass = experiment: Test Example 2: herbicidal activity, application during weed generation under submerged conditions (Table 17, symbol A); assay type: in vivo, late watergrass (Echinochloa oryzicola); details: AAH 320 g/ha; application during weed generation, submerged conditions
Procedure, shortened: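 Steps: fill Wagner pots with alluvial soil; add water to give 4 cm depth; sow the species mixed; grow under glass at 25–30° C.; at 1–2 leaves apply water-diluted emulsion formulation to the water surface at a fixed herbicide amount; score after 3 weeks.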

barnyard grass [1] = experiment: Test Example 3: herbicidal effect by foliage application, Wagner pot (Table 18, symbol H); assay type: in vivo, barnyard grass (Echinochloa crus-galli); details: amount of applied herbicide 320 g/ha
Procedure, shortened: (§1)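 Plants were sown in alluvial soil held under 0.1–0.5 cm standing water and grown 14 days in a greenhouse at 25–30 °C. An emulsifiable formulation, water-diluted to the set dose, was then sprayed onto the foliage, and effects were scored three weeks later using previously defined criteria.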

Chinese sprangletop = experiment: Test Example 3: herbicidal effect by foliage application, Wagner pot (Table 18, symbol D); assay type: in vivo, chinese sprangletop (Leptochloa chinensis); details: amount of applied herbicide 320 g/ha
Procedure, shortened: as §1

southern crabgrass = experiment: Test Example 4: herbicidal effect by soil treatment (Table 19, symbol F); assay type: in vivo, southern crabgrass (Digitaria ciliaris); details: amount of applied herbicide 320 g/ha
Procedure, shortened: (§2)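 Emulsion of test compound, water-diluted to predetermined amount, sprayed on soil after sowing (seed depth ~1.5 cm, sterilized diluvial soil). Greenhouse, 25–30° C. Effect graded at three weeks post-spray.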

barnyard grass [2] = experiment: Test Example 4: herbicidal effect by soil treatment (Table 19, symbol H); assay type: in vivo, barnyard grass (Echinochloa crus-galli); details: amount of applied herbicide 320 g/ha
Procedure, shortened: as §2

blackgrass [3] = experiment: Test Example 4: herbicidal effect by soil treatment (Table 19, symbol J); assay type: in vivo, blackgrass (Alopecurus myosuroides); details: amount of applied herbicide 320 g/ha
Procedure, shortened: as §2

redroot pigweed [4] = experiment: Test Example 4: herbicidal effect by soil treatment (Table 19, symbol N); assay type: in vivo, redroot pigweed (Amaranthus retroflexus); details: amount of applied herbicide 320 g/ha
Procedure, shortened: as §2

lambsquarters = experiment: Test Example 4: herbicidal effect by soil treatment (Table 19, symbol O); assay type: in vivo, lambsquarters (Chenopodium album); details: amount of applied herbicide 320 g/ha
Procedure, shortened: as §2

chickweed = experiment: Test Example 4: herbicidal effect by soil treatment (Table 19, symbol P); assay type: in vivo, common chickweed (Stellaria media); details: amount of applied herbicide 320 g/ha
Procedure, shortened: as §2

barnyard grass [5] = experiment: Test Example 5: herbicidal effect by foliage application, plastic box (Table 20, symbol H); assay type: in vivo, barnyard grass (Echinochloa crus-galli); details: foliage application, AAH 320 g/ha, evaluated three weeks after application
Procedure, shortened: (§3)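 Post-emergence foliar test in sterilized diluvial soil. Compound applied as water-diluted emulsion at a predetermined rate to 14-day-old plants; evaluation at three weeks.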

wild oat = experiment: Test Example 5: herbicidal effect by foliage application, plastic box (Table 20, symbol I); assay type: in vivo, wild oat (Avena fatua); details: foliage application, AAH 320 g/ha, evaluated three weeks after application
Procedure, shortened: as §3

blackgrass [6] = experiment: Test Example 5: herbicidal effect by foliage application, plastic box (Table 20, symbol J); assay type: in vivo, blackgrass (Alopecurus myosuroides); details: foliage application, AAH 320 g/ha, evaluated three weeks after application
Procedure, shortened: as §3

Italian ryegrass = experiment: Test Example 5: herbicidal effect by foliage application, plastic box (Table 20, symbol K); assay type: in vivo, Italian ryegrass (Lolium multiflorum); details: foliage application, AAH 320 g/ha, evaluated three weeks after application
Procedure, shortened: as §3

velvetleaf = experiment: Test Example 5: herbicidal effect by foliage application, plastic box (Table 20, symbol M); assay type: in vivo, velvetleaf (Abutilon theophrasti); details: foliage application, AAH 320 g/ha, evaluated three weeks after application
Procedure, shortened: as §3

redroot pigweed [7] = experiment: Test Example 5: herbicidal effect by foliage application, plastic box (Table 20, symbol N); assay type: in vivo, redroot pigweed (Amaranthus retroflexus); details: foliage application, AAH 320 g/ha, evaluated three weeks after application
Procedure, shortened: as §3

persian speedwell = experiment: Test Example 5: herbicidal effect by foliage application, plastic box (Table 20, symbol R); assay type: in vivo, Persian speedwell (Veronica persica); details: foliage application, AAH 320 g/ha, evaluated three weeks after application
Procedure, shortened: as §3

Row | SMILES | herbicidal effect rating, A: late watergrass (late watergrass) | herbicidal effect on H: barnyard grass (barnyard grass [1]) | herbicidal effect on D: Chinese sprangletop (Chinese sprangletop) | herbicidal effect on F: southern crabgrass (southern crabgrass) | herbicidal effect on H: barnyard grass (barnyard grass [2]) | herbicidal effect on J: blackgrass (blackgrass [3]) | herbicidal effect on N: redroot pigweed (redroot pigweed [4]) | herbicidal effect on O: lambsquarters (lambsquarters) | herbicidal effect on P: chickweed (chickweed) | H: barnyard grass, herbicidal effect (criteria 0-5) (barnyard grass [5]) | I: wild oat, herbicidal effect (criteria 0-5) (wild oat) | J: blackgrass, herbicidal effect (criteria 0-5) (blackgrass [6]) | K: Italian ryegrass, herbicidal effect (criteria 0-5) (Italian ryegrass) | M: velvetleaf, herbicidal effect (criteria 0-5) (velvetleaf) | N: redroot pigweed, herbicidal effect (criteria 0-5) (redroot pigweed [7]) | R: persian speedwell, herbicidal effect (criteria 0-5) (persian speedwell)
1 | CCOC(=O)Oc1c(C)nn(C)c(=O)c1-c1c(-c2ccc(OC(F)F)cc2)sc2ccc(F)cc12 [2-292] | 5 (Herbicidal rate of 90% or more (almost completely withered)) | 5 (Herbicidal rate of 90% or more (almost completely withered)) | 4 (Herbicidal rate of 70% or more and less than 90%) | 3 (Herbicidal rate of 40% or more and less than 70%) | 5 (Herbicidal rate of 90% or more (almost completely withered)) | 3 (Herbicidal rate of 40% or more and less than 70%) | 5 (Herbicidal rate of 90% or more (almost completely withered)) | 5 (Herbicidal rate of 90% or more (almost completely withered)) | 4 (Herbicidal rate of 70% or more and less than 90%) | 5 (Herbicidal rate of 90% or more (almost completely withered)) | 3 (Herbicidal rate of 40% or more and less than 70%) | 4 (Herbicidal rate of 70% or more and less than 90%) | 5 (Herbicidal rate of 90% or more (almost completely withered)) | 5 (Herbicidal rate of 90% or more (almost completely withered)) | 5 (Herbicidal rate of 90% or more (almost completely withered)) | 5 (Herbicidal rate of 90% or more (almost completely withered))
2 | Cc1nn(C)c(=O)c(-c2c(-c3ccc(OC(F)F)cc3)sc3ccc(F)cc23)c1OC(=O)OCCCl [2-293] | 4 (Herbicidal rate of 70% or more and less than 90%) | 5 (Herbicidal rate of 90% or more (almost completely withered)) | 3 (Herbicidal rate of 40% or more and less than 70%) | 4 (Herbicidal rate of 70% or more and less than 90%) | 5 (Herbicidal rate of 90% or more (almost completely withered)) | 5 (Herbicidal rate of 90% or more (almost completely withered)) | 5 (Herbicidal rate of 90% or more (almost completely withered)) | 5 (Herbicidal rate of 90% or more (almost completely withered)) | 4 (Herbicidal rate of 70% or more and less than 90%) | 5 (Herbicidal rate of 90% or more (almost completely withered)) | 3 (Herbicidal rate of 40% or more and less than 70%) | 5 (Herbicidal rate of 90% or more (almost completely withered)) | 5 (Herbicidal rate of 90% or more (almost completely withered)) | 5 (Herbicidal rate of 90% or more (almost completely withered)) | 5 (Herbicidal rate of 90% or more (almost completely withered)) | 5 (Herbicidal rate of 90% or more (almost completely withered))
3 | Cc1nn(C)c(=O)c(-c2c(-c3ccc(OC(F)F)cc3)sc3ccc(F)cc23)c1OC(=S)Sc1ccccc1 [2-298] | 3 (Herbicidal rate of 40% or more and less than 70%) | 5 (Herbicidal rate of 90% or more (almost completely withered)) | 3 (Herbicidal rate of 40% or more and less than 70%) | 0 (Herbicidal rate of 5% or less (almost no effect)) | 0 (Herbicidal rate of 5% or less (almost no effect)) | 0 (Herbicidal rate of 5% or less (almost no effect)) | 3 (Herbicidal rate of 40% or more and less than 70%) | 3 (Herbicidal rate of 40% or more and less than 70%) | 0 (Herbicidal rate of 5% or less (almost no effect)) | 5 (Herbicidal rate of 90% or more (almost completely withered)) | 4 (Herbicidal rate of 70% or more and less than 90%) | 4 (Herbicidal rate of 70% or more and less than 90%) | 5 (Herbicidal rate of 90% or more (almost completely withered)) | 5 (Herbicidal rate of 90% or more (almost completely withered)) | 5 (Herbicidal rate of 90% or more (almost completely withered)) | 5 (Herbicidal rate of 90% or more (almost completely withered))
4 | Cc1nn(C)c(=O)c(-c2c(-c3ccc(OC(F)F)cc3)sc3ccc(F)cc23)c1OCC(=O)c1ccccc1 [2-305] | 3 (Herbicidal rate of 40% or more and less than 70%) | 5 (Herbicidal rate of 90% or more (almost completely withered)) | 5 (Herbicidal rate of 90% or more (almost completely withered)) | 0 (Herbicidal rate of 5% or less (almost no effect)) | 0 (Herbicidal rate of 5% or less (almost no effect)) | 0 (Herbicidal rate of 5% or less (almost no effect)) | 4 (Herbicidal rate of 70% or more and less than 90%) | 3 (Herbicidal rate of 40% or more and less than 70%) | 1 (Herbicidal rate of 5% or more and less than 20%) | 5 (Herbicidal rate of 90% or more (almost completely withered)) | 1 (Herbicidal rate of 5% or more and less than 20%) | 0 (Herbicidal rate of 5% or less (almost no effect)) | 4 (Herbicidal rate of 70% or more and less than 90%) | 5 (Herbicidal rate of 90% or more (almost completely withered)) | 5 (Herbicidal rate of 90% or more (almost completely withered)) | 5 (Herbicidal rate of 90% or more (almost completely withered))
5 | Cc1nn(C)c(=O)c(-c2c(-c3ccc(O)cc3)sc3ccc(F)cc23)c1O [2-337] | 0 (Herbicidal rate of 5% or less (almost no effect)) | 3 (Herbicidal rate of 40% or more and less than 70%) | 0 (Herbicidal rate of 5% or less (almost no effect)) | 0 (Herbicidal rate of 5% or less (almost no effect)) | 0 (Herbicidal rate of 5% or less (almost no effect)) | 0 (Herbicidal rate of 5% or less (almost no effect)) | 0 (Herbicidal rate of 5% or less (almost no effect)) | 0 (Herbicidal rate of 5% or less (almost no effect)) | 3 (Herbicidal rate of 40% or more and less than 70%) | 0 (Herbicidal rate of 5% or less (almost no effect)) | 0 (Herbicidal rate of 5% or less (almost no effect)) | 0 (Herbicidal rate of 5% or less (almost no effect)) | 0 (Herbicidal rate of 5% or less (almost no effect)) | 3 (Herbicidal rate of 40% or more and less than 70%) | 4 (Herbicidal rate of 70% or more and less than 90%) | 5 (Herbicidal rate of 90% or more (almost completely withered))
